Laboratory results from article PMC6753678, “Fueling Open Innovation for Malaria Transmission-Blocking Drugs: Hundreds of Molecules Targeting Early Parasite Mosquito Stages” (Frontiers in Microbiology, 2019).
Read-outs that look alike come from different tables or passages of the source.

Tests used:
HepG2 cells [1] = experiment: HepG2 cytotoxicity assay; conditions: HepG2 cytotoxicity unified across the three screens
Outline: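 Here viability after a 48 h compound incubation (37°C, humidified 5% CO2) is measured by fluorescence and expressed as percent inhibition, with doxorubicin at 50 μM and DMSO as the bounding controls.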

[2] = tested on: P. falciparum late stage (stages IV-V) gametocytes; set-up: method as in Almela et al 2016; conditions: TCAMS screen comparison; ref Almela et al 2016; read-out: Pf GCT ATP IC50; cited from earlier work
[3] = tested on: P. falciparum female gametocytes; set-up: method as in Miguel-Blanco et al 2017; conditions: TCAMS screen comparison; ref Miguel-Blanco et al 2017; read-out: Pf FGAA IC50; cited from earlier work
HepG2 cells [4] = conditions: cited from earlier work
[5] = tested on: P. falciparum female gametocytes; experiment: P. falciparum female gametogenesis assay (Pf FGAA); conditions: 1: YES; 0: NO
[6] = tested on: P. falciparum late stage (stages IV-V) gametocytes; experiment: P. falciparum late stage gametocyte ATP depletion assay (Pf GC-ATP); conditions: 1: YES; 0: NO
[7] = value reported with the Pf FGAA screen, ref Miguel-Blanco et al 2017
[8] = value reported with the Pf GCT ATP screen, ref Almela et al 2016

SMILES	Unified cytotox (HepG2 cells [1])	IC50 [2]	IC50 [3]	HepG2 cytoxicity (HepG2 cells [4]; [7])	HepG2 cytoxicity (HepG2 cells [4]; [8])	Is compound selective in assay? Pf FGAA active? [5]	Is compound selective in assay? Pf GC-ATP active? [6]
CN(C)CCNCc1ccc(-c2ccc3c(Nc4ccc(Oc5ccccc5)cc4)ccnc3c2)o1 [TCMDC-138399]	6.63 µM	0.33 µM	1.56 µM	5.69 µM	7.57 µM	0 (0: NO)	1 (1: YES)
Cc1cccc2nc(-c3ccc(-c4ccc(CNCc5ccc(CN)cc5)cc4)s3)[nH]c12.O=C(O)C(F)(F)F [TCMDC-132809]	19.40 µM	0.86 µM	0.47 µM	14.79 µM	24 µM	1 (1: YES)	1 (1: YES)
CC(C)(C)c1ccc(-c2nc3c(ccc4nc(N)nc(N)c43)[nH]2)cc1.Cl [TCMDC-137984]	2.98 µM	0.21 µM	0.26 µM	2.12 µM	3.85 µM	1 (1: YES)	1 (1: YES)
CCCCCCCN1CC[C@@H](CCCc2ccnc3ccc(OCCN4CCNCC4)cc23)[C@@H](CC)C1.Cl [TCMDC-139817]	5.82 µM	0.57 µM	1.86 µM	4.90 µM	6.75 µM	0 (0: NO)	1 (1: YES)
CC(C)(C)c1ccc(CN2CCC(CNC(=O)c3cc(-c4ccccc4F)cs3)C2)cc1.O=C(O)C(F)(F)F (stereo not drawn) [TCMDC-134443]	8.35 µM	0.34 µM	0.83 µM	9.30 µM	7.4 µM	1 (1: YES)	1 (1: YES)
Cl.Nc1c(I)cc(C(=O)Nc2ccc3nc4c(c(N)c3c2)CCCC4)cc1I [TCMDC-142289]	6.27 µM	0.41 µM	0.78 µM	4.52 µM	8.03 µM	0 (0: NO)	1 (1: YES)
C[C@H](Cc1ccc(OCCCCCOc2ccc(C[C@@H](C)NC[C@H](O)c3cccc(Cl)c3)cc2)cc1)NC[C@H](O)c1cccc(Cl)c1.Cl [TCMDC-131563]	1.95 µM	0.55 µM	0.96 µM	2.11 µM	1.79 µM	0 (0: NO)	0 (0: NO)
SC(=Nc1ccc(Cl)c(Cl)c1)NN=Cc1ccccn1 [TCMDC-125522]	6.28 µM	0.07 µM	0.08 µM	3.47 µM	9.1 µM	1 (1: YES)	1 (1: YES)
COc1cc2nc(N3CCN(c4nc(N)c5cc(OC)c(OC)cc5n4)CC3)nc(N)c2cc1OC [TCMDC-123865]	52.49 µM	0.26 µM	0.58 µM	52.49 µM	>25 µM	1 (1: YES)	1 (1: YES)
CCCOc1ccc2ccccc2c1CNCCCCCCNCc1c(OCCC)ccc2ccccc12.CS(=O)(=O)O [TCMDC-137966]	2.55 µM	0.34 µM	1.03 µM	2.00 µM	3.1 µM	0 (0: NO)	0 (0: NO)
C[C@H](Cc1ccc(C[C@@H](C)NC[C@H](O)c2cccc(Cl)c2)cc1)NC[C@H](O)COc1ccccc1.Cl [TCMDC-131549]	4.94 µM	0.92 µM	1.39 µM	5.19 µM	4.7 µM	0 (0: NO)	0 (0: NO)
CCn1c(-c2nonc2N)nc2c(-c3cc4ccccc4s3)ncc(C(=O)N3CCC(N)C3)c21.O=C(O)C(F)(F)F (stereo not drawn) [TCMDC-135281]	2.25 µM	0.35 µM	0.45 µM	1.00 µM	3.5 µM	0 (0: NO)	0 (0: NO)
CC(C)(C)c1ccc(CN2CCC(CNC(=O)c3cc(-c4cccc(C(F)(F)F)c4)cs3)C2)cc1.O=C(O)C(F)(F)F (stereo not drawn) [TCMDC-134442]	5.65 µM	0.42 µM	0.95 µM	6.39 µM	4.9 µM	0 (0: NO)	1 (1: YES)
COc1cc2nc(N3CCN(C(=O)c4c(Cl)nsc4-c4ccccc4Cl)CC3)nc(N)c2cc1OC.O=C(O)C(F)(F)F [TCMDC-138186]	7.04 µM	0.22 µM	0.99 µM	5.89 µM	8.18 µM	0 (0: NO)	1 (1: YES)
CC(C)(C)c1ccc(CN2CCC(CNC(=O)c3cc(-c4ccccc4Cl)cs3)C2)cc1.O=C(O)C(F)(F)F (stereo not drawn) [TCMDC-134445]	7.23 µM	0.69 µM	1.01 µM	6.17 µM	8.3 µM	0 (0: NO)	1 (1: YES)
Br.CCCCc1ccc(CCNCCCCCCNCCc2ccc(O)c(O)c2)cc1 [TCMDC-131281]	6.41 µM	0.54 µM	2.15 µM	4.63 µM	8.19 µM	0 (0: NO)	1 (1: YES)
COc1ccc(CNC2Cc3ccccc3C2)cc1-c1ccc(OC)c(S(=O)(=O)NCCN2CCCC2)c1.O=C(O)C(F)(F)F [TCMDC-132251]	11.89 µM	1.14 µM	2.7 µM	7.17 µM	16.6 µM	0 (0: NO)	1 (1: YES)
Fc1ccc2[nH]c(-c3ccc(-c4ccc(CN5CCC(CCN6CCCCC6)CC5)cc4)cc3)nc2c1.O=C(O)C(F)(F)F [TCMDC-133924]	4.62 µM	0.46 µM	1.7 µM	3.94 µM	5.3 µM	0 (0: NO)	1 (1: YES)
CCCCCCOc1ccc2ccccc2c1CNCCCCCCNCc1c(OCCCCCC)ccc2ccccc12.CS(=O)(=O)O [TCMDC-137963]	2.85 µM	0.48 µM	1.5 µM	2.40 µM	3.3 µM	0 (0: NO)	0 (0: NO)
COc1ccc2c(c1)CC(C)(C)NC2CCCCCCCCC1NC(C)(C)Cc2cc(OC)ccc21.O=C(O)C(=O)O (stereo not drawn) [TCMDC-137935]	5.47 µM	0.79 µM	1.47 µM	5.62 µM	5.32 µM	0 (0: NO)	0 (0: NO)
CCN(CC)/C(=N/C(=N)NCc1ccc(Cl)cc1Cl)NCCCCCCN/C(=N\C(=N)NCc1ccc(Cl)cc1Cl)N(CC)CC [TCMDC-131819]	36.73 µM	0.3 µM	4.75 µM	36.73 µM	–	0 (0: NO)	1 (1: YES)
O=C(c1ccc([N+](=O)[O-])o1)N1CCC(Cc2ccc(C(F)(F)F)cc2)CC1 [TCMDC-124805]	20.58 µM	0.26 µM	0.16 µM	27.05 µM	14.11 µM	1 (1: YES)	1 (1: YES)
[O-][s+]1c(Cl)c(-c2ccc(Cl)cc2)c2ccc(Cl)cc21 (stereo not drawn) [TCMDC-124011]	12.08 µM	0.02 µM	0.0366 µM	11.35 µM	12.8 µM	1 (1: YES)	1 (1: YES)
COc1ccc(CNCCCCCCNCc2ccc(OC)c3ccccc23)c2ccccc12.Cl [TCMDC-137631]	2.44 µM	0.51 µM	0.72 µM	1.82 µM	3.06 µM	0 (0: NO)	0 (0: NO)
C=CCOc1ccc2ccccc2c1CNCCCCCCNCc1c(OCC=C)ccc2ccccc12.CS(=O)(=O)O [TCMDC-137340]	1.93 µM	0.25 µM	0.7 µM	1.93 µM	<1.56 µM	0 (0: NO)	0 (0: NO)
